Each molecule was assayed against T1, Nanoluciferase-BRD9 fusion protein (3×FLAG-NLuc-BRD9) in SYO-1 cells (Homo sapiens, UniProt Q9H8M2) (assay: SYO1 BRD9 NanoLuc degradation assay). Settings: Table 6B; SYO-1 cells expressing 3×FLAG-NLuc-BRD9, 6 hours incubation, 1 μM top dose; read-out: SYO1 BRD9-NanoLuc degradation IC50.
T1 construct: expressed in transfected cells; host or cells: SYO-1
T1 sequence (Q9H8M2 1-597): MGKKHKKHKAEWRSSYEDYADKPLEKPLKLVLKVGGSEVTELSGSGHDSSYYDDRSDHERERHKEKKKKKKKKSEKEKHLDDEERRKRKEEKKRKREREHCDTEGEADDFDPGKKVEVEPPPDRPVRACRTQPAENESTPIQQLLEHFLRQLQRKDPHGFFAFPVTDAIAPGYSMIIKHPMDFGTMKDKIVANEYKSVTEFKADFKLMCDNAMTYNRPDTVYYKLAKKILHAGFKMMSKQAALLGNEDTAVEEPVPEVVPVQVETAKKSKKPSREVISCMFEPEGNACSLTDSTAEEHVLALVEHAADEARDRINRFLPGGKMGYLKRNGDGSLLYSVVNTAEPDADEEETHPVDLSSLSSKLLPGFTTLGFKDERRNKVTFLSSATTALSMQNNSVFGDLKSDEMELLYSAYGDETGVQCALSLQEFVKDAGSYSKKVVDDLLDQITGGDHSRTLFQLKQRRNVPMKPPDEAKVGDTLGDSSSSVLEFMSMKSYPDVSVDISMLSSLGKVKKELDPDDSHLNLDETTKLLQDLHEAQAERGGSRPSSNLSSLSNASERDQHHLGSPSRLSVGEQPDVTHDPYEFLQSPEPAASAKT
Assay type: cell-based
How it was run: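 Stable SYO-1 line expressing 3×FLAG-NLuc-BRD9 was seeded at 8000 cells/well, then treated next day for 6 h with 10-point 3-fold dilutions (top 1 μM final). Nano-Glo luminescence was read. % inhibition was normalised to DMSO (high control) and 1 μM reference BRD9 degrader (low control).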

Row | Structure (SMILES) | DC50 [nM]
1 | COc1cc(-c2cn(C)c(=O)c3cc(C(=O)NC4CCN(C(=O)CCCCOc5cccc6c5C(=O)N(C5CCC(=O)NC5=O)C6=O)CC4)sc23)cc(OC)c1CN1CCC1 (stereo not shown) [Compound D29] | < 10
2 | COc1cc(-c2cn(C)c(=O)c3cc(C(=O)NC4CCN(C)CC4(F)F)sc23)cc(OC)c1CN(C)CC(=O)NCCOCCOc1cccc2c1C(=O)N(C1CCC(=O)NC1=O)C2=O (stereo not shown) [Compound D30] | > 10
3 | COc1cc(-c2cn(C)c(=O)c3cc(C(=O)NC4CCC(N(C)CCCCOc5cccc6c5C(=O)N(C5CCC(=O)NC5=O)C6=O)CC4)sc23)cc(OC)c1CN(C)C (stereo not shown) [Compound D80] | > 100
4 | COc1cc(-c2cn(C)c(=O)c3occc23)cc(OC)c1CN1CC(CN2CCC3(CC2)CN(c2ccc4c(c2)C(=O)N(C2CCC(=O)NC2=O)C4)C3)C1 (stereo not shown) [Compound D21] | < 10

Next, values leading:

Row | DC50 [nM] | Structure (SMILES)
5 | > 10 | COc1cc(-c2cn(C)c(=O)c3cc(C(=O)NC4CCC5CN(C(=O)CCN6CCN(c7ccc8c(c7)C(=O)N(C7CCC(=O)NC7=O)C8=O)CC6)CC54)sc23)cc(OC)c1CN(C)C (stereo not shown) [Compound D58]
6 | < 10 | COc1cc(-c2cn(C)c(=O)c3cc(C(=O)NC4CCC5(CCN(CCN6CCN(c7ccc8c(c7)C(=O)N(C7CCC(=O)NC7=O)C8=O)CC6)C5)C4)sc23)cc(OC)c1CN(C)C (stereo not shown) [Compound D39]
7 | < 10 | COc1cc(-c2cn(C)c(=O)c3cc(C(=O)NCC4CC5(CCN(CCCN6CCN(c7ccc8c(c7)C(=O)N(C7CCC(=O)NC7=O)C8=O)CC6)CC5)C4)sc23)cc(OC)c1CN(C)C (stereo not shown) [Compound D33]
8 | < 10 | COc1cc(-c2cn(C)c(=O)c3cc(C(=O)NC4CCN(C)CC4(F)F)sc23)cc(OC)c1CN1CCC(CCN2CCN(c3ccc4c(c3)C(=O)N(C3CCC(=O)NC3=O)C4=O)CC2)CC1 (stereo not shown) [Compound D26]
9 | < 10 | COc1cc(-c2cn(C)c(=O)c3cc(C(=O)NC4CC5(CCN(CCN6CCN(c7ccc8c(c7)C(=O)N([C@@H]7CCC(=O)NC7=O)C8=O)CC6)C5)C4)sc23)cc(OC)c1CN(C)C (stereo partly shown) [Compound D65]
10 | < 10 | COc1cc(-c2cn(C)c(=O)c3cc(C(=O)NC4CCN(C)CC4(F)F)sc23)cc(OC)c1CN1CCN(c2ccc3c(c2)CN(C2CCC(=O)NC2=O)C3=O)CC1 (stereo not shown) [Compound D22]
11 | > 10 | COc1cc(-c2cn(C)c(=O)c3cc(C(=O)NCC4CC5(CCN(C(=O)CCN6CCN(c7ccc8c(c7)C(=O)N(C7CCC(=O)NC7=O)C8=O)CC6)CC5)CO4)sc23)cc(OC)c1CN(C)C (stereo not shown) [Compound D48]
12 | > 100 | COc1cc(-c2cn(C)c(=O)c3cc(C(=O)NC4C[C@@H]5CN(C(=O)CCN6CCN(c7ccc8c(c7)C(=O)N(C7CCC(=O)NC7=O)C8=O)CC6)C[C@H]45)sc23)cc(OC)c1CN(C)C (stereo partly shown) [Compound D63]
13 | < 10 | COc1cc(-c2cn(C)c(=O)c3cc(C(=O)NC4CC5CC4CN5CCN4CCN(c5ccc6c(c5)C(=O)N(C5CCC(=O)NC5=O)C6=O)CC4)sc23)cc(OC)c1CN(C)C (stereo not shown) [Compound D70]
14 | > 10 | COc1cc(-c2cn(C)c(=O)c3cc(C(=O)NCC4CC45CCN(CCCN4CCN(c6ccc7c(c6)C(=O)N(C6CCC(=O)NC6=O)C7=O)CC4)CC5)sc23)cc(OC)c1CN(C)C (stereo not shown) [Compound D56]
15 | < 10 | COc1cc(-c2cn(C)c(=O)c3cc(C(=O)NC4CCN(CCN5CCN(c6ccc7c(c6)C(=O)N(C6CCC(=O)NC6=O)C7=O)CC5)CC4(F)F)sc23)cc(OC)c1CN(C)C (stereo not shown) [Compound D79]

Same assay, conditions: Table 6C; SYO-1 cells expressing 3×FLAG-NLuc-BRD9, 6 hours incubation, 1 μM top dose; read-out: SYO1 BRD9-NanoLuc degradation IC50

Row | Structure (SMILES) | DC50 [nM]
16 | COc1cc(OC)cc(-c2cn(C)c(=O)c3cc(C(=O)NC4CCN(c5ccc6c(c5)C(=O)N(C5CCC(=O)NC5=O)C6)CC4(F)F)sc23)c1 (stereo not shown) [Compound D131] | < 10
17 | COc1cc(-c2cn(C)c(=O)c3ncsc23)cc(OC)c1CN1CC(Oc2ccc3c(c2)C(=O)N(C2CCC(=O)NC2=O)C3)C1 (stereo not shown) [Compound D212] | < 10
18 | COc1cc(-c2cn(C)c(=O)c3cscc23)cc(OC)c1CN1CCC2(CC1)CN(c1ccc3c(c1)C(=O)N(C1CCC(=O)NC1=O)C3=O)C2 (stereo not shown) [Compound D208] | < 10
19 | COc1cc(OC)cc(-c2cn(C)c(=O)c3cc(C(=O)NC4CCN(c5ccc6c(c5)C(=O)N(C5CCC(=O)NC5=O)C6)CC4)sc23)c1 (stereo not shown) [Compound D109] | < 10
20 | COc1cc(-c2cn(C)c(=O)c3ocnc23)cc(OC)c1CN1CCC2(CC1)CN(c1ccc3c(c1)C(=O)N(C1CCC(=O)NC1=O)C3)C2 (stereo not shown) [Compound D217] | < 10
21 | Cn1cc(-c2cccc(C(F)(F)F)c2)c2sc(C(=O)NC3CCN(c4ccc5c(c4)C(=O)N(C4CCC(=O)NC4=O)C5)CC3)cc2c1=O (stereo not shown) [Compound D128] | < 10
22 | COc1cc(-c2cn(C)c(=O)c3ccsc23)cc(OC)c1CN1CCC2CCN(c3ccc4c(c3)CN(C3CCC(=O)NC3=O)C4=O)CC2C1 (stereo not shown) [Compound D121] | < 10
23 | COc1cc(-c2cn(C)c(=O)c3ccsc23)cc(OC)c1CN1CCC2(CC1)CN(c1ccc3c(c1)CN(C1CCC(=O)NC1=O)C3=O)C2 (stereo not shown) [Compound D178] | < 10
24 | COc1cc(-c2cn(C)c(=O)c3sccc23)cc(OC)c1CN1CCC(CN2CCC3(CC2)CC(Oc2ccc4c(c2)CN(C2CCC(=O)NC2=O)C4=O)C3)CC1 (stereo not shown) [Compound D193] | < 10
25 | COc1cc(-c2cn(C)c(=O)c3cc(C#N)sc23)cc(OC)c1CN1CCC(CN2CCC3(CC2)CN(c2ccc4c(c2)C(=O)N(C2CCC(=O)NC2=O)C4)C3)CC1 (stereo not shown) [Compound D101] | < 10
26 | COc1cc(-c2cn(C)c(=O)c3ccsc23)cc(OC)c1CN1CCC2(CC1)CN(c1ccc3c(c1)C(=O)N(C1CCC(=O)N(COC(=O)[C@@H](N)C(C)C)C1=O)C3=O)C2 (stereo partly shown) [Compound D107] | < 10
27 | COc1cc(-c2c(C)n(C)c(=O)c3cc(C(=O)NC4CCN(C)CC4(F)F)sc23)cc(OC)c1CN1CC(CN2CCC3(CC2)CN(c2ccc4c(c2)C(=O)N(C2CCC(=O)NC2=O)C4)C3)C1 (stereo not shown) [Compound D172] | > 1000
28 | CCc1cc(OC)cc(-c2cn(C)c(=O)c3cc(C(=O)NC4CCN(c5ccc6c(c5)C(=O)N(C5CCC(=O)NC5=O)C6)CC4(F)F)sc23)c1 (stereo not shown) [Compound D129] | < 10
29 | COc1cc(-c2cn(C)c(=O)c3ccsc23)cc(OC)c1CN1CC(Oc2ccc3c(c2)C(=O)N(C2CCC(=O)NC2=O)C3)C1 (stereo not shown) [Compound D168] | < 10
30 | COc1cc(-c2cn(C)c(=O)c3cc(C(=O)NC4CCN(c5ccc6c(c5)C(=O)N(C5CCC(=O)NC5=O)C6)CC4(F)F)sc23)cc(F)c1CN(C)C (stereo not shown) [Compound D118] | < 10
31 | COc1cc(-c2cn(C)c(=O)c3sncc23)cc(OC)c1CN1CCC2(CC1)CN(c1ccc3c(c1)C(=O)N(C1CCC(=O)NC1=O)C3)C2 (stereo not shown) [Compound D203] | < 10
32 | COc1cc(-c2cn(C)c(=O)c3ncsc23)cc(OC)c1CN1CCC2(CC1)CN(c1ccc3c(c1)C(=O)N(C1CCC(=O)NC1=O)C3)C2 (stereo not shown) [Compound D204] | > 100
33 | COc1cc(-c2cn(C)c(=O)c3ccsc23)cc(OC)c1CN1CCC2(CN(c3ccc4c(c3)C(=O)N(C3CCC(=O)NC3=O)C4)C2)C(F)(F)C1 (stereo not shown) [Compound D111] | < 10
34 | COc1cc(OC)cc(-c2cn(C)c(=O)c3cc(C(=O)NC4CCN(c5cccc(OC6CCC(=O)NC6=O)c5)CC4)sc23)c1 (stereo not shown) [Compound D96] | < 10
35 | COc1cc(-c2cn(C)c(=O)c3ccsc23)cc(OC)c1CN1CCC(CN2CCC3(CC2)CC(Oc2ccc4c(c2)CN(C2CCC(=O)NC2=O)C4=O)C3)CC1 (stereo not shown) [Compound D220] | < 10
36 | CNc1cc2c(=O)n(C)cc(-c3cc(OC)c(CN4CCC5(CC4)CN(c4ccc6c(c4)C(=O)N(C4CCC(=O)NC4=O)C6)C5)c(OC)c3)c2s1 (stereo not shown) [Compound D97] | < 10
37 | COc1cc(-c2cn(C)c(=O)c3cc(C(=O)NC4CCN(C5CCN(c6ccn7c(=O)n(C8CCC(=O)NC8=O)nc7c6)CC5)CC4(F)F)sc23)cc(OC)c1CN(C)C (stereo not shown) [Compound D179] | < 10

Next, values leading:

Row | DC50 [nM] | Structure (SMILES)
38 | < 10 | COc1cc(-c2cn(C)c(=O)c3cc(C(=O)NC4CN(C5CCN(c6ccc7c(c6)C(=O)N(C6CCC(=O)NC6=O)C7=O)CC5)CC4(F)F)sc23)cc(OC)c1CN(C)C (stereo not shown) [Compound D187]
39 | < 10 | COc1cc(-c2cn(C)c(=O)c3cc(C(=O)N[C@H]4CCN(C5CCN(c6ccc7c(c6)C(=O)N([C@@H]6CCC(=O)NC6=O)C7)CC5)CC4(F)F)sc23)cc(OC)c1CN(C)C [Compound D140]
40 | < 10 | COc1cc(-c2cn(C)c(=O)c3cc(C(=O)N[C@@H]4CCN(C5CCN(c6ccc7c(c6)C(=O)N(C6CCC(=O)NC6=O)C7)CC5)CC4(F)F)sc23)cc(OC)c1CN(C)C (stereo partly shown) [Compound D162]
41 | < 10 | COc1cc(-c2cn(C)c(=O)c3cc(C(=O)NC4CCN(CCN5CCC6(CC5)CN(c5ccc7c(c5)C(=O)N(C5CCC(=O)NC5=O)C7)C6)CC4(F)F)sc23)cc(OC)c1CN(C)C (stereo not shown) [Compound D175]
42 | < 10 | COc1cc(-c2cn(C)c(=O)c3cc(C(=O)NC4CCN(CCC5CCN(c6ccc7c(c6)CN(C6CCC(=O)NC6=O)C7=O)CC5)CC4(F)F)sc23)cc(OC)c1CN(C)C (stereo not shown) [Compound D102]
43 | < 10 | COc1cc(-c2cn(C)c(=O)c3cc(C(=O)N[C@H]4CCN(C5CCN(c6ccc7c(c6)C(=O)N([C@H]6CCC(=O)NC6=O)C7)CC5)CC4(F)F)sc23)cc(OC)c1CN(C)C [Compound D141]
